Test results taken from patent publication US20220380347A1, “INHIBITORS OF CYSTEINE PROTEASES AND METHODS OF USE THEREOF” (Pardes Biosciences, Inc., priority 2020, published 2022).
Like-named read-outs stand apart in the source and are kept apart here.

What was measured:
[1] = target: COVID-19 (nCoV-2019, SARS-CoV2) Mpro (Severe acute respiratory syndrome coronavirus 2, UniProt P0DTD1); assay: COVID-19 (nCoV-2019, SARS-CoV2) Mpro enzymatic assay; format: biochemical; details: 25 nM Mpro, 25 μM substrate; read-out: COVID-19 Mpro IC50
229E Mpro = 229E Mpro (Human coronavirus 229E, UniProt P0C6X1); assay: 229E Mpro enzymatic assay (standard methods, SARS-CoV2 Mpro assay given as exemplary); format: biochemical, human coronavirus (HCov) 229E
Experimental: Compounds were assayed using standard methods to assess compound activity and IC50. As an exemplary for assessment of the SARS-COV2 Mpro, the C-His6-tagged Mpro (NC_045512) was cloned, expressed in E. coli and purified. The assay buffer contained 20 mM of Tris-HCl (pH 7.3), 100 mM of NaCl, 1 mM of EDTA, 5 mM of TCEP and 0.1% BSA. The final concentrations of the Mpro protein and substrate were 25 nM and 25 μM, respectively, in the Mpro enzymatic assay. The Km of the Mpro substrate for the protease was 13.5 μM.
The compounds were added to an assay plate. […] For no inhibition control (ZPE, zero percent effect), no compound was added.
IC50 values of compounds were calculated with the GraphPad Prism software using the nonlinear regression model of log(inhibitor) vs. response—Variable slope (four parameters). The inhibition activity was calculated using the formula below, IC50 values is calculated using the Inhibition % data.
Inhibition %=[(Sample-Average ZPE)/(Average HPE-Average ZPE)]*100%^#

HCov OC43 = assay: HCoV OC43 cytopathic effect (CPE) assay, CellTiter Glo; format: cell-based, human coronavirus (HCov) OC43
Experimental: Example 238: Evaluation of antiviral activity of compounds against human coronavirus (HCov) 229E and OC43 in the cytopathic effect (CPE) assays
Compounds were assayed using standard methods against multiple coronaviral strains, including HCoV 229E and OC43 strains. The antiviral activity of compounds was calculated based on the protection of the virus-induced CPE at each concentration normalized by the virus control.
Reference compound used was remdesivir; detection reagent: CellTiter Glo.) The CPE were measured by CellTiter Glo following the manufacturer's manual. The antiviral activity of compounds was calculated based on the protection of the virus-induced CPE at each concentration normalized by the virus control.
Cell viability was measured with CellTiter Glo.

[2] = read-out: OC43 IC50 (uM) MEDIAN, median
[3] = Betacoronavirus 1, OC43, read-out: OC43 IC50 (uM) MEDIAN, median

Sequence of 229E Mpro (P0C6X1 2966-3267): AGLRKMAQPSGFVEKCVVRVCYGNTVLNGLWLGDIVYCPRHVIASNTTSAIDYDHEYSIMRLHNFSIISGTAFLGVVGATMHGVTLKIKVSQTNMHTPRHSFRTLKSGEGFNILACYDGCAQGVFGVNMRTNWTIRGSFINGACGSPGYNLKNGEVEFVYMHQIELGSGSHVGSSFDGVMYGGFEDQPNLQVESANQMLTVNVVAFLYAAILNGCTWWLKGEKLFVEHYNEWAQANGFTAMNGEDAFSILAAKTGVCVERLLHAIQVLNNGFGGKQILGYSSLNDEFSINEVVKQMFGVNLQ

| SMILES | IC50 [1] [µM] | EC50 (229E Mpro; 229E Mpro EC50) [µM] | IC50 (HCov OC43; [2]) [µM] | EC50 (229E Mpro; read-out: 229E Mpro EC50) [µM] | IC50 (HCov OC43; [3]) [µM] |
| --- | --- | --- | --- | --- | --- |
| CC(C)(C)c1ccc(N(C(=O)[C@H]2C[C@@H](Oc3ccccc3)CN2C#N)C(C(=O)NC2CCCCC2)c2cccnc2)cc1 (single isomer, unassigned) [307 Isomer 2] | > 30 | 2 to 10 | 2 to 10 |  |  |
| CC(C)(C)c1ccc(N(C(=O)[C@H]2CCCN2C#N)C(C(=O)NCCN2CCOCC2)c2cccnc2)cc1 (single isomer, unassigned) [391 Isomer 1] | < 2 | < 2 | < 2 |  |  |
| CC(C)(C)c1ccc(N(C(=O)[C@H]2CCCN2C#N)C(C(=O)NCCN2CCOCC2)c2cccnc2)cc1 (single isomer, unassigned) [391 Isomer 2] | 10 to 30 | 2 to 10 | 10 to 30 |  |  |
| CC(C)(C)c1ccc(N(C(=O)[C@H]2CCCN2C#N)C(C(=O)NC2CCCCC2)c2cncc(F)c2)cc1 (single isomer, unassigned) [475 Isomer 1] | < 2 | < 2 | 2 to 10 |  |  |
| CC(C)(C)c1ccc(N(C(=O)[C@H]2CCCN2C#N)C(C(=O)NC2CCCCC2)c2cncc(F)c2)cc1 (single isomer, unassigned) [475 Isomer 2] | 10 to 30 | 2 to 10 | 10 to 30 |  |  |
| CC(C)(C)c1ccc(N(C(=O)[C@H]2C[C@@H](O)CN2C#N)C(C(=O)NC2CCCC2)c2cccnc2)cc1 (single isomer, unassigned) [595 Isomer 2] | < 2 |  | < 2 | < 2 |  |
| CC(C)(C)c1ccc(N(C(=O)[C@H]2C[C@@H](O)CN2C#N)C(C(=O)NCc2cccnc2)c2cccnc2)cc1 (single isomer, unassigned) [643 Isomer 1] | < 2 | < 2 |  |  | < 2 |
| CC(C)(C)c1ccc(N(C(=O)[C@H]2C[C@@H](O)CN2C#N)C(C(=O)NCc2cccnc2)c2cccnc2)cc1 (single isomer, unassigned) [643 Isomer 2] | 2 to 10 |  | 2 to 10 | < 2 |  |
| COCCCNC(=O)C(c1cccnc1)N(C(=O)[C@H]1C[C@@H](O)CN1C#N)c1ccc(C(C)(C)C)cc1 (single isomer, unassigned) [647 Isomer 1] | < 2 | < 2 |  |  | < 2 |
| CC(C)(C)c1ccc(N(C(=O)[C@H]2C[C@@H](O)CN2C#N)C(C(=O)NC2CCCCC2)c2cncc(Cl)c2)cc1 (single isomer, unassigned) [675 Isomer 1] | < 2 | < 2 |  |  | < 2 |
| CC(C)(C)c1ccc(N(C(=O)[C@H]2C[C@@H](O)CN2C#N)C(C(=O)NC2CCCCC2)c2cncc(Cl)c2)cc1 (single isomer, unassigned) [675 Isomer 2] | 2 to 10 |  | 2 to 10 | < 2 |  |
| N#CN1C[C@H](O)C[C@@H]1C(=O)N(c1ccc(C2(C(F)(F)F)CC2)cc1)C(C(=O)NC1CCCCC1)c1cccnc1 (single isomer, unassigned) [735 Isomer 1] | < 2 | < 2 |  |  | < 2 |
| N#CN1C[C@H](O)C[C@@H]1C(=O)N(c1ccc(C2(C(F)(F)F)CC2)cc1)C(C(=O)NC1CCCCC1)c1cccnc1 (single isomer, unassigned) [735 Isomer 2] | 2 to 10 |  | 2 to 10 | < 2 |  |
| CC(C)(C)c1ccc(N(C(=O)[C@H]2CCCN2C#N)C(C(=O)NC2CCCCC2)c2cccnc2)cc1 (single isomer, unassigned) [Compound 130a] | < 2 | < 2 |  |  |  |
| CC(C)(C)c1ccc(N(C(=O)[C@H]2CCCN2C#N)C(C(=O)NC2CCCCC2)c2cccnc2)cc1 (single isomer, unassigned) [Compound 130b] | > 30 | 2 to 10 |  |  |  |
| CC(C)(C)OC(=O)N1CCC[C@@H]1C(=O)N(c1ccc(C(C)(C)C)cc1)C(C(=O)NC1CCCCC1)c1cccnc1 (single isomer, unassigned) [Compound 131a] | > 30 | > 30 |  |  |  |
| CC(C)(C)c1ccc(N(C(=O)[C@@H]2CCCN2)C(C(=O)NC2CCCCC2)c2cccnc2)cc1 (single isomer, unassigned) [Compound 131c] | > 30 | > 30 |  |  |  |
| N#CN1C[C@H]2C[C@H]2[C@@H]1C(=O)N(c1ccc(S(F)(F)(F)(F)F)cc1)C(C(=O)NC1CCC(F)(F)CC1)c1cncc(F)c1 (single isomer, unassigned) [Compound 1095b Isomer 2] | < 2 |  | < 2 |  |  |
| CC(C)(C)c1ccc(N(C(=O)c2cnc[nH]2)C(C(=O)NC2CCCCC2)c2cccnc2Br)cc1 (stereo not shown) [Compound 100a] | > 30 |  |  |  |  |
| CC(C)(C)c1ccc(N(C(=O)c2cnc[nH]2)C(C(=O)NC2CCCCC2)c2ccc(C(F)(F)F)nc2Cl)cc1 (stereo not shown) [Compound 102a] | > 30 |  |  |  |  |

| SMILES | IC50 [1] [µM] | EC50 (229E Mpro; 229E Mpro EC50) [µM] | IC50 (HCov OC43; [2]) [µM] | EC50 (229E Mpro; read-out: 229E Mpro EC50) [µM] | IC50 (HCov OC43; [3]) [µM] |
| --- | --- | --- | --- | --- | --- |
| CC(C)(C)c1ccc(N(C(=O)c2cnc[nH]2)C(C(=O)NC2CCCCC2)c2cncnc2)cc1 (stereo not shown) [Compound 104, N-(4-tert-butylphenyl)-N-[2-(cyclohexylamino)-2-oxo-1-pyrimidin-5-yl-ethyl]-1H-imidazole-5-carboxamide] | 2 to 10 |  |  |  |  |
| CC(C)(C)c1ccc(N(C(=O)c2cnc[nH]2)C(C(=O)NC2CCCCC2)c2ncc(Cl)nc2C#N)cc1 (stereo not shown) [Compound 110] | > 30 | > 30 |  |  |  |
| CC(C)(C)c1ccc(N(C(=O)c2nsnc2C#N)C(C(=O)NC2CCCCC2)c2cccnc2)cc1 (stereo not shown) [Compound 122, N-(4-tert-butylphenyl)-4-cyano-N-[2-(cyclohexylamino)-2-oxo-1-(3-pyridyl)ethyl]-1,2,5-thiadiazole-3-carboxamide] |  |  |  | > 30 |  |
| CC(C)(C)c1ccc(N(C(=O)c2nsnc2C(N)=O)C(C(=O)NC2CCCCC2)c2cccnc2)cc1 (stereo not shown) [Compound 123a] | > 30 | > 30 |  |  |  |
| CC(C)(C)c1ccc(N(C(=O)c2nccnc2C(N)=O)C(C(=O)NC2CCCCC2)c2cccnc2)cc1 (stereo not shown) [Compound 124a] | > 30 | > 30 |  |  |  |
| CC(C)(C)OC(=O)N1CC(C(=O)N(c2ccc(C(C)(C)C)cc2)C(C(=O)NC2CCCCC2)c2cccnc2)C1 (stereo not shown) [Compound 126] | > 30 | > 30 |  |  |  |
| CC(C)(C)c1ccc(N(C(=O)C2CNC2)C(C(=O)NC2CCCCC2)c2cccnc2)cc1 (stereo not shown) [Compound 127] | > 30 | > 30 |  |  |  |
| CC(C)(C)OC(=O)N1CC(C)(C(=O)N(c2ccc(C(C)(C)C)cc2)C(C(=O)NC2CCCCC2)c2cccnc2)C1 (stereo not shown) [Compound 129] | > 30 | > 30 |  |  |  |
| CC1(C(=O)N(c2ccc(C(C)(C)C)cc2)C(C(=O)NC2CCCCC2)c2cccnc2)CNC1 (stereo not shown) [Compound 129a] | > 30 | > 30 |  |  |  |
| CC(C)(C)c1ccc(N(C(=O)[C@@H]2CCCN2C#N)C(C(=O)NC2CCCCC2)c2cccnc2)cc1 (stereo partly shown) [Compound 130c] | > 30 | > 30 |  |  |  |
| CC(C)(C)OC(=O)N1CCC[C@@H]1C(=O)N(c1ccc(C(C)(C)C)cc1)C(C(=O)NC1CCCCC1)c1cccnc1 (stereo partly shown) [Compound 131b] | > 30 |  |  | > 30 |  |
| CC(C)(C)c1ccc(N(C(=O)[C@@H]2CCCN2)C(C(=O)NC2CCCCC2)c2cccnc2)cc1 (stereo partly shown) [Compound 131d] | > 30 |  |  | > 30 |  |
| CC(C)(C)c1ccc(N(C(=O)[C@H]2N(C#N)CC2(C)C)C(C(=O)NC2CCCCC2)c2cccnc2)cc1 (stereo partly shown) [Compound 136a] | > 30 | > 30 |  |  |  |
| CC(C)(C)c1ccc(N(C(=O)[C@H]2NCC2(C)C)[C@H](C(=O)NC2CCCCC2)c2cccnc2)cc1 [Compound 136b] | > 30 | > 30 |  |  |  |
| CC(C)(C)c1ccc(N(C(=O)[C@H]2NCC2(C)C)[C@@H](C(=O)NC2CCCCC2)c2cccnc2)cc1 [Compound 136c] | > 30 | > 30 |  |  |  |
| NC(=O)c1nc(C2CC2)ccc1N(C(=O)c1cnc[nH]1)[C@@H](C(=O)NC1CCCCC1)c1cccnc1 [Compound 832] |  |  |  | 2 to 10 |  |
| NC(=O)c1nc(C2CC2)ccc1N(C(=O)c1cnc[nH]1)[C@H](C(=O)NC1CCCCC1)c1cccnc1 [Compound 833] | 2 to 10 | 2 to 10 |  |  |  |
| CC(C)(C)c1ccc(N(C(=O)[C@@H]2CCN2)[C@H](C(=O)NC2CCCCC2)c2cccnc2)cc1 [Compound 846] |  |  |  | < 2 |  |
| CC(C)(C)c1ccc(N(C(=O)c2scnc2C#N)C(C(=O)NC2CCCCC2)c2cccnc2)cc1 (stereo not shown) [Compound 899, N-(4-tert-butylphenyl)-4-cyano-N-[2-(cyclohexylamino)-2-oxo-1-(3-pyridyl)ethyl]thiazole-5-carboxamide] | > 30 |  |  |  |  |
| CC(C)(C)c1ccc(N(C(=O)c2scnc2Cl)C(C(=O)NC2CCCCC2)c2cccnc2)cc1 (stereo not shown) [Compound 899a] | > 30 |  |  |  |  |
